# Read-outs that look alike come from different tables or passages of the source.
# Assays:
# [1] = tested on: Salmonella enterica, ATCC 14028; test: Log kill in aqueous bacterial suspension, plating on TSA; type: cell-based; conditions: 15 seconds, c. 74° F.
# Protocol: As before, reaction mixtures were incubated for 15 seconds at room temperature (c. 74° F.). The results are depicted in Table XII and graphed in FIG. 12.
# However, in this example the effectiveness of such mixtures was tested against Salmonella enterica, ATCC 14028. […] The balance was water. Increasing amounts of these “reagents” were added to a series of reaction tubes.
# As before each reaction was initiated by the addition of bacteria, incubated at ambient temperature for 15 seconds and terminated by addition of quench buffer. The tests were performed at room temperature. The bacterial titer of each mixture was determined by preparation and plating of serial dilutions on TSA. The results for both reagents are reported in Table XIII and graphed in FIG. 13.
# [2] = tested on: Salmonella enterica serovar Typhimurium (ATCC 14028); test: Log reduction on inoculated meat samples by immersion; conditions: 5% (w/w) total acid (60% lactic+40% citric acid) + 1200 ppm SLS, meat samples immersed 3 minutes at 108° F. (Meat Experiment #43)
# Protocol: (§1) Meat samples were allowed to equilibrate to ambient temperature (74° F.) and inoculated with 25 μl of a late log phase culture of either Escherichia coli serotype O157:H7 (ATCC 43888) or Salmonella enterica serovar Typhimurium (ATCC 14028). Samples were allowed to rest for 10 minutes for the bacteria to attach. After attachment the inoculated samples were immersed in the treatment solutions as detailed in each experiment described below. After immersion, meat samples were immediately placed into a sterile Whirlpack Bag with 10-15 ml of neutralizing buffer to inactivate any residual antimicrobial on the meat surface. Samples were massaged for 3 minutes to extract surviving bacteria from the meat. Bacterial counts in the fluid were enumerated by plating on Violet Red Bile Agar (E. coli) or Salmonella Shigella Agar (Salmonella) and counting colonies after at least 16-24 hours of incubation.
# The meat samples described in Example 16 were treated with 5% (w/w) total acid (60% lactic+40% citric acid) with addition of 1200 ppm of the anionic surfactant sodium lauryl sulfate (SLS) for 3 minutes at 108° F.
# [3] = tested on: E. coli ATCC 43888 (O157:H7); test: Log kill in aqueous bacterial suspension, plating on TSA; type: cell-based, Escherichia coli
# [4] = tested on: Escherichia coli serotype O157:H7 (ATCC 43888); test: Log reduction on inoculated meat samples by immersion
# Protocol: as §1, with “incubation. […]” for “incubation.”
# E. coli ATCC 12435 = test: Log kill / surviving titer in aqueous bacterial suspension, plating on TSA; type: cell-based, Escherichia coli; conditions: […] wt./wt. % WAC in 2.5% lactic acid, 15 seconds, 74 to 80 degrees F.
# Protocol: The “reaction” (i.e. interaction of antimicrobial agent and the target organism) was initiated by the addition of bacteria to the antimicrobial solution. The reaction was allowed to proceed for the respective time periods listed in Table I (i.e., at least 15 seconds each) and was terminated at the end of that time by adding quench buffer comprising 3.2 M potassium phosphate buffer, pH 7.2. The sample then was evaluated using serial 10-fold dilutions into sterile phosphate buffer as needed to determine, on Tryptic Soy agar (“TSA”), the titer of surviving bacteria. TSA is a medium that allows the growth of most bacteria.
# The reduction in the bacterial count is expressed as the “log kill” which is defined as log10 [initial cfu/ml]−log10 [remaining cfu/ml]; where “cfu” refers to “colony forming unit.” All log kills reported herein are positive “base 10.”). Inasmuch as the standard assay mixture contained only ca. 25×10^6 cfu initially (equivalent to 7.398 log) the theoretical maximum kill that can be measured with this assay system is ca. 7.4 log and the practical measuring limit is ca. 6 log. Therefore, high levels of log reduction were monitored by plating reaction mixtures directly (without dilution) onto agar medium. The results are reported in Table I and illustrated in graph format in FIG. 1. […] The tests were replicated with E. coli ATCC 43888, a pathogenic strain of E. coli O157:H7. […]
# After incubation for 15 seconds at ambient temperature the reaction was quenched by addition of phosphate buffer and the titer of surviving bacteria was determined by plating on TSA as described in the previous examples. […] The amphoteric and zwitterionic surfactants, which carry a net positive charge under the conditions of the reaction mixture, caused enhancement of the log kill by lactic acid. All anionic surfactants tested caused substantial enhancement of the log kill by lactic acid.
# [5] = 1200 ppm SLS, 5% total acid at ratio 4:6 citric acid:lactic acid, 2 minutes at 109-111° F., control 5% lactic acid only
# [6] = 1400 ppm SLS added to 5% total acid 60:40 lactic:citric, 3 minutes at 109° F.
smiles,measurement,setting,value
"CCCCCCCCCCCCOS(=O)(=O)[O-].[Na+] [Sodium Lauryl Sulfate, sodium lauryl sulfate]",Log Kill,[1]; sodium lauryl sulfate 0.004 wt./wt. % in […] lactic acid,3.82 log
same,Log Kill,[1]; sodium lauryl sulfate 0.008 wt./wt. % in […] lactic acid,4.4 log
same,Log Kill,[1]; sodium lauryl sulfate 0.012 wt./wt. % in […] lactic acid,5.489 log
same,Log Kill,[1]; sodium lauryl sulfate 0.016 wt./wt. % in […] lactic acid,5.489 log
same,Log Kill,[1]; sodium lauryl sulfate 0.020 wt./wt. % in […] lactic acid,5.97 log
same,Log Reduction,[2],3.28 log
same,Log Kill,[3],4.8 log
same,in 2.5% Lactic Acid (Log Kill),[3],5.81 log
same,in […] Lactic Acid (Log Kill),[3],5.83 log
same,Log Kill,"[3]; sodium lauryl sulfate 0.004 wt./wt. % in […] lactic acid, 15 seconds, 75 degrees F.",2.08 log
same,Log Kill,"[3]; sodium lauryl sulfate 0.012 wt./wt. % in […] lactic acid, 15 seconds, 75 degrees F.",5.92 log
same,Log Kill,"[3]; sodium lauryl sulfate 0.016 wt./wt. % in […] lactic acid, 15 seconds, 75 degrees F.",5.92 log
same,in 2.5% Lactic Acid (Log Kill),[3]; sodium lauryl sulfate 0.02 wt./wt. % in 2.5% lactic acid,4.81 log
same,in 2.5% Lactic Acid (Log Kill),[3]; sodium lauryl sulfate 0.04 wt./wt. % in 2.5% lactic acid,4.81 log
same,in […] Lactic Acid (Log Kill),"[3]; sodium lauryl sulfate 0.04 wt./wt. % in […] lactic acid, 15 seconds, 75 degrees F.",5.83 log
same,in 2.5% Lactic Acid (Log Kill),[3]; sodium lauryl sulfate 0.06 wt./wt. % in 2.5% lactic acid,5.81 log
same,in […] Lactic Acid (Log Kill),"[3]; sodium lauryl sulfate 0.06 wt./wt. % in […] lactic acid, 15 seconds, 75 degrees F.",5.34 log
same,in 2.5% Lactic Acid (Log Kill),[3]; sodium lauryl sulfate 0.10 wt./wt. % in 2.5% lactic acid,5.81 log
same,in […] Lactic Acid (Log Kill),"[3]; sodium lauryl sulfate 0.10 wt./wt. % in […] lactic acid, 15 seconds, 75 degrees F.",5.83 log
same,effect of increasing SLS concentration on kill by lactic acid,"[4]; 4% (w/w) lactic acid with 0-1700 ppm sodium lauryl sulfate, 2 minutes at 108° F.",enhanced kill
same,enhancement of reduction when SLS is included,[4]; [5],ca. 1.6 log
same,increase of microbial reduction when SLS is included,[4]; [5],40 fold
same,enhancement of reduction when SLS is included,[4]; [6],ca. 1.6 log
same,increase of microbial reduction when SLS is included,[4]; [6],40 fold
same,Log Kill (Lactic Acid + Surfactant),E. coli ATCC 12435,6.43 log
